Results: patent US20220274927A1, “MEMBRANE-ACTIVE ANTI-BACTERIAL COMPOUNDS AND USES THEREOF” (Trustees of Dartmouth College, priority 2019, published 2022)
Values after ≈ are worked out from the molar mass of the structure shown. “Also recorded” adds a separate entry of the source. Like-named read-outs stand apart in the source and are kept apart here.

Assays:
[1] = system: methicillin-resistant S. aureus (FPR3757); experiment: MIC against clinical MRSA strain FPR3757 in Mueller-Hinton broth (CLSI); type: cell-based, Staphylococcus aureus; details: MRSA clinical strain FPR3757, Mueller-Hinton broth, CLSI guidelines, complete inhibition of observable growth
Text: (§1) The first set of compounds evaluated were analogs at the C-7 and C-8 positions of the initial quinolone hit DNAC-2 since the other HTS hits identified (data not shown) were substituted at these positions (Table 1). Applicants first explored modification at the C-7 position with a small series of electron-donating and withdrawing substituents. […] However, analogs containing electron donating groups at C-7 including ethyl 7, benzyloxy 8, methoxy 9 and methylthio 10 are weakly active displaying MICs of 320-640 μg/mL indicating electron-donating substituents at C-7 are poorly tolerated. […] The C-8 position was evaluated with trifluoromethyl 4 and trifluoromethoxy 5 containing the optimal C-7 substituents. Both 4 and 5 are equipotent to the corresponding C-7 analogs 2 and 3 indicating some flexibility of the quinolone scaffold.

[2] = system: S. aureus membranes (versus erythrocyte membranes); experiment: in vitro; type: cell-based, sheep; details: sheep
Procedure: (§2) FIG. 8 illustrates percent hemolysis analysis of sheep erythrocytes. Concentration-dependent hemolysis was measured by monitoring the optical density (OD)540 of PBS-washed sheep erythrocytes. Complete hemolysis (100%) was confirmed by treatment of erythrocytes with Triton X-100. Data points represent the mean±SD of triplicate experiments.
(§3) The macromolecular synthesis assay, TEM, and FM experiments were all consistent with membrane disruption. […] The high membrane selectivity of the 5-aminoquinolin-4-ones in this assay is impressive and is in accordance with the observed therapeutic index (CC50/MIC).

[3] = system: sheep erythrocytes; experiment: in vitro; type: cell-based; details: for hemolysis: sheep, 32 μg/mL
Procedure: as §2, §3

[4] = system: E. faecalis DHMC #1; experiment: Antimicrobial susceptibility MIC, E. faecalis DHMC #1; type: cell-based; details: Enterococcus faecalis; E. faecalis strain DHMC #1
Text: as §1
(§4) The compounds maintain activity against Staphylococcus epidermidis; however, 31, 111 and 123 all lose considerable potency against Enterococcus faecalis and Enterococcus faecium, which contribute heavily, along with MRSA, to healthcare-associated infections.

[5] = system: Staphylococcus simulans; experiment: Macromolecular synthesis assays (radiolabeled precursor incorporation); type: cell-based
Text: FIG. 5 illustrates macromolecular synthesis assays (representative data with 123). Time-course for inhibition of incorporation of radiolabeled precursors [^3H]-L-isoleucine (protein), [^3H]-thymidine (DNA), [^3H]-uridine (RNA), and [^3H]-glucosamine (cell wall) in S. simulans by 123 at 0.5×, 1× and 5×MIC. Data are expressed as the percentage of inhibition relative to the DMSO only negative control. The positive control antibiotics denoted by closed circles were used at 10× MIC. Data represent the mean±standard deviation (SD) of triplicate experiments.
Classical macromolecular synthesis assays were performed to provide insight on the putative mechanism of action of the most promising quinoline 31 and quinolone 123 candidates. Disruption of bacterial membranes is not only rapid, but interferes with all major metabolic activities in the cell and is thus easily distinguished by macromolecular synthesis assays. […] The control antibiotics ciprofloxacin, rifampicin, vancomycin and tetracycline were included as inhibitors of DNA, RNA, cell wall, and protein synthesis, respectively. The cells were quenched at various time points with 10% trichloroacetic acid (TCA), filtered, washed and the amount of precursor incorporation was quantified by scintillation counting.

[6] = system: S. aureus NIH04008; experiment: Antimicrobial susceptibility MIC, S. aureus NIH04008; type: cell-based; details: Staphylococcus aureus; S. aureus strain NIH04008; read-out: MIC
Text: as §1, §4

[7] = system: S. aureus (strain COL); experiment: Fluorescent microscopy of membrane, cell wall and DNA; type: cell-based; details: 1× MIC, 30 minutes, vs DMSO
Procedure: FIGS. 7A and 7B illustrate fluorescent microscopy (FM) analysis of the membrane, cell wall, and DNA in MRSA. FM of COL MRSA strain treated with compound 123 (FIG. 7B, bottom row) at 1×MIC and DMSO (FIG. 7A, top row) for 30 minutes followed by staining with FM-64 (far left column, 0.5 μg/mL), VanFL (second column, 1 μg/mL), and Hoechst (third column, 1 μg/mL) for 5 minutes and washed with 1× phosphate buffered saline (PBS) before imaging (fourth column, overlay).
(§5) These cellular defects were not seen in any of the control cells treated with DMSO. Fluorescent microscopy was performed on a S. aureus (strain COL) strain after treatment with either DMSO, 31 or 123 for 30 minutes followed by staining with FM 4-64 (red membrane stain), bodipy-vancomycin (Van-FL, green stain), and Hoechst (blue DNA stain).

[8] = system: MRSA clinical strain S. aureus FPR3757; experiment: Minimum bactericidal concentration (MBC) against S. aureus FPR3757; type: cell-based
[9] = system: S. epidermidis NIH04003; experiment: Antimicrobial susceptibility MIC, S. epidermidis NIH04003; type: cell-based; details: Staphylococcus epidermidis; S. epidermidis strain NIH04003
Text: as §1, §4

[10] = system: S. aureus (MRSA); experiment: In vitro time-kill assay; type: cell-based; details: 1× MIC, initial inoculum 10^5 CFU, plating over six hours
Procedure: FIG. 4 illustrates in vitro time-kill analysis of methicillin resistant Staphylococcus aureus (MRSA). Bacterial killing was monitored by measuring the colony forming unit (CFU) for six hours when treated with compounds 22, 31, 117, and 123 at 1× the minimum inhibitory concentration (MIC) of each compound. The CFU at each time point was determined by plating and then compared to a dimethyl sulfoxide (DMSO) control.
While the MIC data confirmed that these compounds were at least bacteriostatic, Applicants wanted to test for bactericidal properties of both the aminoquinoline and aminoquinolone scaffolds. […] The kinetics of bacterial killing was assessed in vitro using time-kill assays by incubating compounds at 1× their MIC with an initial inoculum of 10^5 colony forming units (CFU) of S. aureus and removing aliquots at various time points to determine the residual CFU by plating.

[11] = system: S. aureus MW2; experiment: Antimicrobial susceptibility MIC, S. aureus MW2; type: cell-based; details: Staphylococcus aureus; S. aureus strain MW2; read-out: MIC
Text: as §1, §4

[12] = system: S. aureus N325; experiment: Antimicrobial susceptibility MIC, S. aureus N325; type: cell-based; details: Staphylococcus aureus; S. aureus strain N325
Text: as §1, §4

[13] = system: S. aureus COL; experiment: Antimicrobial susceptibility MIC, S. aureus COL; type: cell-based; details: Staphylococcus aureus; S. aureus strain COL
Text: as §1, §4

[14] = system: S. aureus NRS71; experiment: Antimicrobial susceptibility MIC, S. aureus NRS71; type: cell-based; details: Staphylococcus aureus; S. aureus strain NRS71
Text: as §1, §4

[15] = system: clinical methicillin-resistant Staphylococcus aureus (MRSA) isolates; experiment: MIC against panel of MRSA / staphylococcal strains (text summaries); type: cell-based
Text: as §1, §4

[16] = system: E. faecium DHMC #1; experiment: Antimicrobial susceptibility MIC, E. faecium DHMC #1; type: cell-based; details: Enterococcus faecium; E. faecium strain DHMC #1
Text: as §1, §4

[17] = system: S. aureus (strain USA300); experiment: Transmission electron microscopy of treated cells; type: cell-based; details: 1× MIC, after 10 minutes, vs DMSO
Procedure: FIGS. 6A, 6B and 6C illustrate transmission electron microscopy (TEM) imaging of MRSA USA300 treated with compounds 22 and 31.
Transmission electron microscopy (TEM) and fluorescence microscopy (FM) allowed Applicants to directly observe the effects of the novel 4-aminoquinolines […] 5-aminoquinolones on the cell morphology of staphylococci.
as §5

[18] = Staphylococcus aureus, MRSA, read-out: MIC

## O=c1cc(C(F)(F)F)[nH]c2cc(C(F)(F)F)cc(NC3CCC(C(F)(F)F)CC3)c12 (centres unmarked) [Compound 117]
[1]; [18]
  MIC: < 0.06 µg/mL
[2]
  selectivity ratio: > 500
[3]
  hemolysis: None of the compounds except 76, displayed any hemolysis

## O=c1cc(C(F)(F)F)[nH]c2cc(C(F)(F)F)cc(N3CCOCC3)c12 [Compound 118]
[1]; [18]
  MIC: > 32 µg/mL

## O=c1cc(C(F)(F)F)[nH]c2cc(Nc3ccc(Cl)c(Cl)c3)cc(C(F)(F)F)c12 [Compound 119]
[1]; [18]
  MIC: 1 µg/mL (≈ 2.27 µM)

## O=c1cc(C(F)(F)F)[nH]c2cc(Nc3ccc(F)c(F)c3)cc(C(F)(F)F)c12 [Compound 120]
[1]; [18]
  MIC: 4 µg/mL (≈ 9.8 µM)

## O=c1cc(C(F)(F)F)[nH]c2cc(Nc3ccc(C(F)(F)F)cn3)cc(C(F)(F)F)c12 [Compound 122]
[1]
  MIC: 4 µg/mL (≈ 9.07 µM)

## O=c1cc(C(F)(F)F)[nH]c2cc(F)cc(Nc3ccc(C(F)(F)F)cn3)c12 [Compound 123]
[4]
  MIC: 8 µg/mL (≈ 20.4 µM)
[5]; 0.5×, 1× and 5× MIC
  inhibition of DNA, RNA, protein and cell-wall synthesis: concentration-dependent inhibition of DNA, RNA, protein and cell-wall synthesis
[5]; 5× the MIC, DNA, RNA, protein, cell wall precursor incorporation
  inhibition of macromolecular processes at 5× MIC: completely inhibited all macromolecular processes
[6]
  MIC: < 0.06 µg/mL
[1]
  MIC: <0.06 µg/mL
[1]; [18]
  MIC: < 0.06 µg/mL
[7]
  DNA and cell wall staining (Hoechst, Van-FL): little or no change compared to the DMSO control
  membrane staining (FM 4-64): membrane defects
[8]
  MBC relative to MIC: MBCs equal to their MIC values
[9]
  MIC: < 0.06 µg/mL
[10]
  time-kill: CFU reduction: reduced the CFU below the limit of detection at four to six hours
[2]
  selectivity ratio: > 500
[3]
  hemolysis: None of the compounds except 76, displayed any hemolysis
[11]
  MIC: < 0.06 µg/mL
[12]
  MIC: < 0.06 µg/mL
[13]
  MIC: < 0.06 µg/mL
[14]
  MIC: < 0.06 µg/mL
[15]; read-out: MIC against numerous clinical MRSA isolates
  MIC: ≤ 0.06 µg/mL
[15]; six S. aureus strains of Table 9, read-out: MIC towards all six S. aureus strains
  MIC: < 0.06 µg/mL
[16]
  MIC: 8 µg/mL (≈ 20.4 µM)
[17]
  cell morphology in TEM images: cross-wall-septum formation with reduced splitting; also recorded: mesosome-like membrane inclusions

## Triton X-100 [reference compound]
[3]
  lysis (positive control): 100%
